Values quoted from earlier work, collected in patent publication US20140314729A1, “NUTRACEUTICAL FORMULATION FOR TREATMENT OF ELEVATED CHOLESTEROL AND CARDIOVASCULAR DISEASE” (Creative Medical Health Inc., priority 2013, published 2014).

How the values were obtained:
[1] = system: patients with type 2 diabetes; conditions: oral 200 mg/day for 12 weeks
mouse model = conditions: 150 mg/kg body weight for 10 days
[2] = system: streptozotocin-treated rats; conditions: 80 μg/kg body weight daily for two weeks; P<0.001
HIV-positive subjects = conditions: 1000 µg/day for eight weeks
volunteers = conditions: 1.6 mg daily, 42-day period

## COC1=C(OC)C(=O)C(C/C=C(\C)CC/C=C(\C)CC/C=C(\C)CC/C=C(\C)CC/C=C(\C)CC/C=C(\C)CC/C=C(\C)CC/C=C(\C)CC/C=C(\C)CCC=C(C)C)=C(C)C1=O [coenzyme Q10]
[1]
  brachial artery flow-mediated dilation: increased

## CC(C)(COP(=O)(O)O)[C@@H](O)C(=O)NCCC(=O)O [phosphopantothenate]
Mouse model
  content of triglycerides, total cholesterol and cholesterol esters in serum and adipose tissue: decreased

## chromium picolinate
[2]
  average lowering of blood glucose compared with high-fat diet alone: 63%
  lowering of total cholesterol compared with high-fat diet alone: 9.7%
  lowering of triglycerides compared with high-fat diet alone: 6.6%
HIV-positive subjects
  increase of mean rate of glucose disposal: 25%
HIV-positive subjects; from 4.41, range 3.19-12.78, p=0.03
  mean rate of glucose disposal after treatment: 6.51 mg/kg LBM/min
volunteers
  decrease in LDL cholesterol: 10.5%
  decrease in total cholesterol: 7%
volunteers; from 200
  LDL cholesterol after treatment: 178 mg per dl
volunteers; from 276
  total cholesterol after treatment: 256 mg per dl
